The test system of one test is IL-8. The test can be described thus: Anti-inflammatory activity: IL-8 production induced by TNFα, ELISA. Type of test: cell-based, human. The conditions noted are these: 0.2 µg/mL TNFα, 6 hours. The text has this:
We assessed the capacity of the product Comp. 1 in Example 10 to inhibit or reduce the inflammatory state induced, in the same cells as in the previous example, by pro-inflammatory cytokine TNFα. This treatment led to the production of interleukin 8 (IL-8), which is cause of the "recruitment" of white blood cells to the site of inflammation. The IL-8 levels are directly proportional to the intensity of said inflammation.
The 6 product concentrations utilised in the anti-inflammatory test were chosen based on the cell viability test results. […] This is because the product per se leads to the reduction, and therefore the staining, of the MTT.
We first determined the optimal amount of TNFα to perform the test. […] The treatment was performed at 37°C and 5% CO2 for a total of 6 hours; aliquots of 200 µL of the growth medium were taken at the start of the treatment (T0) and after 1, 2, 4 and 6 hours, and then analysed by ELISA test. […]
Anti-inflammatory drug dexamethasone (dex) at a concentration of 0.1 mg/mL was utilised as a positive control. The treatment was performed for 6 hours, at the end of which as aliquots of 200 µL of the growth medium were taken and then analysed by ELISA test. […] The quantification was performed by setting up a calibration curve with different concentrations of a standard IL-8 solution, supplied with the kit. […]
For orientation: An ELISA detects its analyte on a solid surface through an enzyme-linked reagent.

Test [1] deals with Enterococcus faecium. Nature of the test: MBEC test of composition versus its components, 24 h preformed biofilm, crystal violet. Type of test: cell-based. The conditions noted are these: MBEC E. faecium.
Experimental: To determine the minimum biofilm eradication concentration, 48-well plates were utilised. The microorganisms were incubated for 24 h at 37°C to allow the formation of the biofilm. Once formed, the biofilms were treated with the composition in Example 1 and the respective components (as per Example 17) to eradicate the biofilm. In particular, after the formation of the biofilm, the supernatant was suctioned and replaced with solutions containing decreasing concentrations of the product. The plates thus prepared were incubated for 24 h at 37°C. At the end of the incubation time, the supernatant present in each well was removed, together with the bacteria that was not attached to the plate and following the washes with sterile deionised water the plates were incubated at 60°C for 2 hours to fix the cells before the staining with crystal violet. The crystal violet staining was performed to assess the effect of the product and of the components thereof on the removal of the biofilm. 200 µL of crystal violet dissolved in deionised water at a concentration of 0.02% was dispensed into each well and, after 5 minutes of incubation at room temperature, each well was washed three times with sterile deionised water. The biofilm eradication activity was viewed under microscopic observation.
Test [2] concerns Klebsiella Pneumoniae DSM 30104. The test can be described thus: MBIC test of composition versus its components, crystal violet absorbency at 595 nm. Format: cell-based. The conditions noted are these: MBIC K. pneumoniae. The protocol: (§1) The composition of Example 1 was tested to assess the capacity to inhibit the formation of biofilm shown by the following microorganisms: • Klebsiella Pneumoniae DSM 30104 • Enterococcus Faecium DSM 20477
(§2) The bacteria stated above were revived from the working cell bank, stored at -80°C, for each experiment conducted.
(§3) The tests were conducted on the following formulations: • Mannose 3000 mg + NAC 600 mg + PEA 600 mg (i.e. composition Example 1) • Mannose 3000 mg + NAC 600 mg • PEA 600 mg
(§4) The three formulations were dissolved at 100 gr/l in sterile TSB/TSYEM medium and then utilised to perform the MBIC test as follows.
(§5) MBIC 48-well plates were utilised for the determination. 800 µL sample, prepared at a concentration of 2x with respect to the maximum concentration being tested, was dispensed into the first well and 400 µL medium was added to the subsequent wells, performing serial dilutions of 1:2 up to the 8th well. Finally, 400 µL of each microorganism at a concentration of 10^5 was inoculated into each well. The multiwell plates were incubated at 37°C for 24 hours and then the supernatant present was removed, together with the planktonic bacteria not attached to the plate.
(§6) The biofilm was then washed 3 times with sterile deionised water and subsequently the cells were fixed by means of incubation at 60°C for 2 hours, before being stained with crystal violet. The crystal violet staining was performed to assess the effect of the product and the components thereof on the biofilm formation. 200 µL of 0.02% crystal violet dissolve in deionised water was dispensed into each well and, after 5 minutes of incubation at room temperature, each well was finally washed three times with sterile deionised water. The biofilm inhibition activity was viewed by microscopic observation under stereomicroscope.
(§7) At the end of the microscopic observation of the condition of the biofilm by staining, the stain fixed to the biofilm treated was extracted utilising 100% methanol for 5 minutes at room temperature. The methanolic extract thus obtained was analysed under spectrophotometer to measure the absorbency at 595 nm. As the solution stain intensity obtained is proportional to the biofilm remaining, absorbency is a quantitative parameter which can be used to measure the amount of biofilm. Absorbency was therefore utilised to determine the biofilm decrease percentage by comparing the data obtained following treatments against the untreated biofilm control.

For test [3], the system named is Enterococcus Faecium DSM 20477. The description is as above. Format: cell-based. The conditions noted are these: E. faecium MBIC. The protocol: as §1, §2, §3, §4, §5, §6, §7
The subject of a further test is Escherichia coli. Nature of the test: MBIC, comparison with D-mannose, crystal violet staining. Format: cell-based. The protocol:
(§8) To determine the MBIC with the product Comp. 1 in Example 10 with respect to the D-mannose, 48-well plates were utilised. 200 µL of the product Comp. 1, prepared at a concentration of 2x with respect to the maximum concentration being tested, was dispensed into the first well and […] was added to the subsequent wells, performing serial dilutions of 1:2 up to the 8th well. Finally, 200 µL of each microorganism, at a concentration of 10^5, was inoculated into each well. The biofilm inhibition activity of the D-mannose at the same concentration as that present in the product Comp. 1 was also assessed. The multiwell plates were incubated at 37°C for 24 hours and then the supernatant present was removed, together with the planktonic bacteria not attached to the plate. The biofilm was then washed 3 times with PBS and subsequently the cells were fixed by means of incubation at 60°C for 2 hours, before being stained with crystal violet. 100 µL crystal violet dissolved in deionised water was dispensed into each well and, after 5 minutes of incubation at room temperature, each well was finally washed three times with PBS 1x. The biofilm inhibition activity was viewed by microscopic observation under stereomicroscope and optical microscope using the phase-contrast method. The final concentrations tested for each compound are stated in Table 6. Table 6 [table]

Test [4] relates to Enterococcus faecium. The description is as above. Type of test: cell-based. The procedure: as §8
The subject of a further test is Klebsiella pneumoniae. The description is as above. Type of test: cell-based. The protocol:
as §8

The test system of test [5] is Escherichia coli (DSM 1576). The test can be described thus: MIC determination by broth dilution (CLSI M07), 96-well plates. Format: cell-based. To be noted: E. coli; range tested: Comp. 1 100-0.05 g/L, D-mannose 65-0.03 g/L; 24 h. The procedure:
(§9) The antimicrobial activity of the product Comp. 1 in Example 10 was tested in vitro according to method CLSI M07 "Methods for dilution Antimicrobial susceptibility tests for bacteria that grow aerobically".
(§10) For this purpose, the MIC (Minimum Inhibitory Concentration) values were determined with respect to the main microorganisms responsible for urinary tract infections.
(§11) More specifically, the microorganisms utilised were: Escherichia coli (DSM 1576), Klebsiella pneumoniae (DSM 30104), and Enterococcus faecalis(DSM 20477).
(§12) For each experiment conducted, the bacteria stated above were revived from a cell bank stored at -80°C. […]
(§13) The assay to determine the MIC was conducted in 96-well plates testing 12 concentrations (serial dilutions) of each sample. 200 µL of the sample, prepared at a concentration of 2x with respect to the maximum concentration being tested, was dispensed into the first well and 100 µL medium was added to the subsequent wells, performing serial dilutions of 1:2 up to 12th well. Finally, 100 µL of each microorganism at a concentration of 10^5 was inoculated into each well.
(§14) Two antibiotics were used as controls: Fosfomycin (Sigma) and Ceftriaxone (Sigma) at different final concentrations based on the microorganism utilised; both the antibiotics were dissolved in sterile water and then filtered with 0.22 µm filters.
(§15) Growth was tested and the sterility of the medium and of the product was tested. The antimicrobial activity of the D-mannose was also assessed individually. The plates thus prepared were incubated at 37°C for 24h and the results were then observed (Figure 1). The final concentrations tested for each product analysed are stated in Table 2.

For test [6], the system named is Klebsiella pneumoniae (DSM 30104). The description is as above. Type of test: cell-based. To be noted: K. pneumoniae; range tested: Comp. 1 100-0.05 g/L, D-mannose 65-0.03 g/L; 24 h. The protocol: as §9, §10, §11, §12, §13, §14, §15
Test [7] concerns Enterococcus faecium. Described as above. Format: cell-based. To be noted: E. faecium; range tested: Comp. 1 100-0.05 g/L, D-mannose 65-0.03 g/L; 24 h.

From patent EP4380555B1, “COMPOSITION COMPRISING D-MANNOSE, N-ACETYLCYSTEINE AND PALMITOYLETHANOLAMIDE AND ITS USE FOR THE TREATMENT OF URIRNARY TRACT INFECTIONS” (Agave S.r.l., priority 2021, dated 2023) come the findings set out here.

On to `C[C@@H]1C[C@H]2[C@@H]3CCC4=CC(=O)C=C[C@]4(C)[C@@]3(F)[C@@H](O)C[C@]2(C)[C@@]1(O)C(=O)CO` [Dex, dexamethasone], for which the “concentration of IL-8 with respect to the cells treated solely with TNFα” value with IL-8 (Dex 0.1 mg/mL, TNFα alone = 100) was determined as 69%. Moreover, in the test on IL-8 (Dexamethasone 0.1 mg/mL), the “IL-8 produced less than that produced by the cells treated solely with TNFα” value amounted to 31%.
For the molecule `CCCCCCCCCCCCCCCC(=O)NCCO` [PEA, palmitoylethanolamide], the “Abs 595 nm” value in the test with Enterococcus faecium [1] (24 h biofilm, 24 h treatment, untreated biofilm 2.09) came to 2.098; in test [2] (1.56 g/L product of Example 1, components at the same concentration as in the composition, untreated biofilm 0.176) it was 0.129; in test [3] (3.13 g/L product of Example 1, components at the same concentration as in the composition, untreated biofilm 0.318) it was 0.304. Besides, the “% decrease” value with Enterococcus faecium [1] (treated versus untreated biofilm) worked out at 0%; in test [2] (treated versus untreated biofilm, 1.56 g/L product of Example 1), 26.70%; in test [3] (treated versus untreated biofilm, 3.13 g/L product of Example 1), 4%.
Regarding `O=C[C@@H](O)[C@@H](O)[C@H](O)[C@H](O)CO` [D-mannose], the figures for the “concentration of the mannose alone needed for the same efficaciousness as Comp. 1” value with Escherichia coli (E. coli biofilm), with Enterococcus faecium [4] (E. faecium biofilm) and in the test on Klebsiella pneumoniae (K pneumoniae biofilm) were “approximately 2.5 times”, “approximately 10 times” and “approximately 10 times”, respectively. The “concentration active on biofilm formation” value in the test with Escherichia coli (E. coli, 24 h) is recorded as 32.5 g/L; in the test on Klebsiella pneumoniae (K. pneumoniae, 24 h) it was 8.13 g/L. The “concentration with evident activity on the biofilm” value with Enterococcus faecium [4] (E. faecium, 24 h) is reported as 65 g/L. In addition, the antimicrobial activity result (in test [5]; in [6]; with Enterococcus faecium [7]) was “did not demonstrate any antimicrobial activity” each time.
